Results on 31 molecules are retold here after patent publication US20080269213A1, “8-Hydroxyquinoline compounds and methods thereof” (Wyeth, priority 2006, published 2008).

“And” between values parts separate entries of the source, which are not always exact repeats. Identical values can stand only once.

For the first assay, the target named is T1, recombinant human Aggrecanase-2 Agg2-Phe628 (Homo sapiens, UniProt Q9UNA0).
T1 sequence (Q9UNA0 262-628 limits assumed): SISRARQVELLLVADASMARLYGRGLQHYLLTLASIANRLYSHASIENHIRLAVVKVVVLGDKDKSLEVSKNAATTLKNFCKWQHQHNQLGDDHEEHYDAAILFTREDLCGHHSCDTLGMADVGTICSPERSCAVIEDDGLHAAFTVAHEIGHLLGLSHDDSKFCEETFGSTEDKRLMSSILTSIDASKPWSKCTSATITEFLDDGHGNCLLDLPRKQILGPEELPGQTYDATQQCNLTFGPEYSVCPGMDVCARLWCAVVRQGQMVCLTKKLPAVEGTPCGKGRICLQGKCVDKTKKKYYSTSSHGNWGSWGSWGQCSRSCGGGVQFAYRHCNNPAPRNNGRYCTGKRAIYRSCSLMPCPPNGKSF
Nature of the assay: Aggrecanase 2 in vitro enzyme assay (Agg-2 FRET, quenched fluorescent peptide substrate). The assay is classed as biochemical. On the set-up: purified recombinant human Aggrecanase-2 Agg2-Phe628 (MW=41,737); This is a truncated form of full-length human aggrecanase-2; made in house; host or cells: CHO cells. The settings on record: concentration not given. The method, then: A continuous assay was used in which the substrate was a synthetic peptide containing a fluorescent group (o-aminobenzyl, Abz), which was quenched by energy transfer to a 2,4-dinitrophenyl group (Dnp). The buffer used in this assay was 50 mM HEPES, pH 7.5, 100 mM NaCl, 5 mM CaCl2, 0.1% CHAPS, 5% glycerol. The source of enzyme was purified recombinant human Aggrecanase-2 Agg2-Phe628 (MW=41,737). This is a truncated form of full-length human aggrecanase-2 that was expressed in CHO cells and purified. The final concentration of Agg2-Phe628 was 0.5 μg/ml. […] It is a synthetic peptide that is designed after a portion of brevican, one of the naturally occurring substrates of Aggrecanase-2, of the sequence Abz-[…]-Dap(Dnp)-KK—NH2 (mass=1740). The concentration of this substrate stock was spectrophotometrically determined using the extinction coefficient at 354 nm of 18,172 M^−1cm^−1. […] The final concentration of substrate in the assay was 25 μM.
Test compounds (in duplicate) were serially diluted from 2 mM to 0.01 μM in 100% DMSO. The total reaction volume was 100 μl. The buffer and enzyme were added first followed by addition of 10× inhibitor from the dilution plate. Enzyme and buffer alone samples were included in order to obtain the maximal rate of substrate cleavage. […] Then substrate was added, mixed and the reaction monitored for 40 min at 30° C. in kinetic mode using λex: 340 nm and % λem: 420 (GeminiXS Molecular Devices).
In the case of `COc1c(C(NC(=O)COc2ccccc2)c2ccccc2)cc(Cl)c2cccnc12` (stereo not shown) [N-[(5-chloro-8-methoxyquinolin-7-yl)(phenyl)methyl]-2-phenoxyacetamide], the “Agg-2 FRET Median PCT INHIB” value came to 50%.
Same read-out and setting: for `O=C(COc1ccc(Oc2ccccc2)cc1)NC(c1ccccc1)c1cc(Cl)c2cccnc2c1O` (stereo not shown) [Example 85, N-[(5-chloro-8-hydoxyquinolin-7-yl)(phenyl)methyl]-2-(4-phenoxyphenoxy)acetamide] the value was 50%.
On the same count and under the same terms, the value for `CC(=O)NC(c1ccccc1)c1ccc2cccnc2c1O` (stereo not shown) [N-[(8-hydroxyquinolin-7-yl)(phenyl)methyl]acetamide] was 50%; that for `Cc1ccc(C(NC(=O)COc2ccccc2)c2cc(Cl)c3cccnc3c2O)c(C)c1` (stereo not shown) [N-[(5-chloro-8-hydroxyquinolin-7-yl)(2,4-dimethylphenyl)methyl]-2-phenoxyacetamide] was 60%.

The assay is the same for the next values; noted with them: read-out: Agg2 IC50.
As a reminder, the IC50 is the midpoint of a concentration-inhibition curve. As for `O=C(COc1ccccc1)NC(c1cnc2ccccc2c1)c1cc(Cl)c2cccnc2c1O` (stereo not shown) [N-[(5-chloro-8-hydroxyquinolin-7-yl)(quinolin-3-yl)methyl]-2-phenoxyacetamide], the IC50 came to 1.3 µM.

Still in this assay, the particulars now being: read-out: Agg-2 FRET Median IC50.
With `Cc1cc(NCC(=O)NC(c2ccccc2Cl)c2cc(Cl)c3cccnc3c2O)ccc1Cl` (stereo not shown) [Example 19, N^1-[(5-chloro-8-hydroxyquinolin-7-yl)(2-chlorophenyl)methyl]-N^2-(4-chloro-3-methylphenyl)glycinamide], the IC50 came out at 1.48 µM.
Same read-out and setting: for `O=C(COc1ccc(Cl)cc1)NC(c1ccccc1)c1cc(Cl)c2cccnc2c1O` (stereo not shown) [N-[(5-chloro-8-hydroxyquinolin-7-yl)(phenyl)methyl]-2-(4-chlorophenoxy)acetamide] the value was 1.02 µM.
Still for that read-out and setting: the value for `Cc1ccc(C(NC(=O)CN(C)c2ccccc2)c2cc(Cl)c3cccnc3c2O)cc1` (stereo not shown) [Example 58, N^1-[(5-chloro-8-hydroxyquinolin-7-yl)(4-methylphenyl)methyl]-N^2-methyl-N^2-phenylglycinamide] was 0.776 µM.
The same measure, in the same setting: for `CC(=O)c1ccc(OCC(=O)NC(c2cccc([N+](=O)[O-])c2)c2cc(Cl)c3cccnc3c2O)cc1` (stereo not shown) [2-(4-acetylphenoxy)-N-[(5-chloro-8-hydroxyquinolin-7-yl)(3-nitrophenyl)methyl]acetamide] the value was 2.33 µM.
As for `O=C(COc1ccccc1)NC(c1ccc(F)cc1Cl)c1cc(Cl)c2cccnc2c1O` (stereo not shown) [N-[(2-chloro-4-fluorophenyl)(5-chloro-8-hydroxyquinolin-7-yl)methyl]-2-phenoxyacetamide], the IC50 is 1.09 µM.
On the same count and under the same terms, the value for `Cc1ccc(C(NC(=O)CN(C)Cc2ccccc2)c2cc(Cl)c3cccnc3c2O)cc1` (stereo not shown) [Example 59, N^2-benzyl-N^1-[(5-chloro-8-hydroxyquinolin-7-yl)(4-methylphenyl)methyl]-N^2-methylglycinamide] was 1.28 µM.
On the same count and under the same terms, for `O=C(COc1ccccc1)NC(c1ccc([N+](=O)[O-])cc1)c1ccc2cccnc2c1O` (stereo not shown) [N-[(8-hydroxyquinolin-7-yl)(4-nitrophenyl)methyl]-2-phenoxyacetamide] the value was 2.39 µM; for `O=C(COc1ccccc1)NC(c1cccc(F)c1)c1ccc2cccnc2c1O` (stereo not shown) [N-[(3-fluorophenyl)(8-hydroxyquinolin-7-yl)methyl]-2-phenoxyacetamide], 2.77 µM; for “N-[(5-chloro-8-hydroxyquinolin-7-yl)(4-methoxyphenyl)methyl]-2-(4-methylphenoxy)acetamide [Example 80]”, 0.774 µM.
As for `Cc1ccc(C)c(C(NC(=O)COc2ccccc2)c2cc(Cl)c3cccnc3c2O)c1` (stereo not shown) [Example 37, N-[(5-chloro-8-hydroxyquinolin-7-yl)(2,5-dimethylphenyl)methyl]-2-phenoxyacetamide], the IC50 was 1.49 µM.
Same read-out and setting: the value for “N-[(8-hydroxyquinolin-7-yl)(4-methoxyphenyl)methyl]-2-(4-phenoxyphenoxy)acetamide [Example 76]” was 3.22 µM; that for `COc1ccc(OCC(=O)NC(c2ccccc2)c2ccc3cccnc3c2O)cc1` (stereo not shown) [N-[(8-hydroxyquinolin-7-yl)(phenyl)methyl]-2-(4-methoxyphenoxy)acetamide] was 3.34 µM.
Same read-out and setting: the value for `O=C(NC(c1ccccc1)c1cc(Cl)c2cccnc2c1O)c1ccccc1` (stereo not shown) [N-[(5-chloro-8-hydroxyquinolin-7-yl)(phenyl)methyl]benzamide] was 1.31 µM; that for `O=C(CNCc1ccccc1)NC(c1cccc([N+](=O)[O-])c1)c1cc(Cl)c2cccnc2c1O` (stereo not shown) [Example 64, N^2-benzyl-N^1-[(5-chloro-8-hydroxyquinolin-7-yl)(3-nitrophenyl)methyl]glycinamide] was 0.765 µM; that for `CN(CC(=O)NC(c1cccc([N+](=O)[O-])c1)c1cc(Cl)c2cccnc2c1O)c1ccccc1` (stereo not shown) [Example 62, N^1-[(5-chloro-8-hydroxyquinolin-7-yl)(3-nitrophenyl)methyl]-N^2-methyl-N^2-phenylglycinamide] was 0.559 µM.
Same read-out and setting: for `O=C(COc1ccccc1)NC(c1cccc(F)c1)c1cc(Cl)c2cccnc2c1O` (stereo not shown) [N-[(5-chloro-8-hydroxyquinolin-7-yl)(3-fluorophenyl)methyl]-2-phenoxyacetamide] the value was 0.624 µM.
Turning to `O=C(COc1ccc(Oc2ccccc2)cc1)NC(c1ccccc1)c1ccc2cccnc2c1O` (stereo not shown) [N-[(8-hydroxyquinolin-7-yl)(phenyl)methyl]-2-(4-phenoxyphenoxy)acetamide], the half-inhibitory concentration (IC50) is 0.908 µM.
As for `O=C(COc1ccccc1)NC(c1ccccc1Cl)c1ccc2cccnc2c1O` (stereo not shown) [N-[(2-chlorophenyl)(8-hydroxyquinolin-7-yl)methyl]-2-phenoxyacetamide], the IC50 was found to be 2.5 µM.
For the molecule `Cc1ccc(C(NC(=O)CNCc2ccccc2)c2cc(Cl)c3cccnc3c2O)cc1` (stereo not shown) [Example 60, N^2-benzyl-N^1-[(5-chloro-8-hydroxyquinolin-7-yl)(4-methylphenyl)methyl]glycinamide], the IC50 was 1.83 µM.
`Cc1ccc(C(NC(=O)COc2ccccc2)c2ccc3cccnc3c2O)cc1` (stereo not shown) [N-[(8-hydroxyquinolin-7-yl)(4-methylphenyl)methyl]-2-phenoxyacetamide]: the IC50 came out at 3.01 µM.
Regarding `Cc1ccccc1C(NC(=O)COc1ccccc1)c1cc([N+](=O)[O-])c2cccnc2c1O` (stereo not shown) [N-[(8-hydroxy-5-nitroquinolin-7-yl)(2-methylphenyl)methyl]-2-phenoxyacetamide], the IC50 came to 0.854 µM.
The same measure, in the same setting: for `COc1ccc(OCC(=O)NC(c2ccc(OC)cc2)c2ccc3cccnc3c2O)cc1` (stereo not shown) [N-[(8-hydroxyquinolin-7-yl)(4-methoxyphenyl)methyl]-2-(4-methoxyphenoxy)acetamide] the value was 4.51 µM.
The same measure, in the same setting: the value for `COc1ccc(C(NC(=O)COc2cccnc2)c2cc(Cl)c3cccnc3c2O)cc1` (stereo not shown) [N-[(5-chloro-8-hydroxyquinolin-7-yl)(4-methoxyphenyl)methyl]-2-(pyridin-3-yloxy)acetamide] was 2.98 µM.
Same read-out and setting: for `Cc1ccc(OCC(=O)NC(c2ccccc2)c2ccc3cccnc3c2O)cc1` (stereo not shown) [N-[(8-hydroxyquinolin-7-yl)(phenyl)methyl]-2-(4-methylphenoxy)acetamide] the value was 2.47 µM; for `COc1ccc(C(NC(=O)COc2ccc(C)cc2)c2ccc3cccnc3c2O)cc1` (stereo not shown) [N-[(8-hydroxyquinolin-7-yl)(4-methoxyphenyl)methyl]-2-(4-methylphenoxy)acetamide], 2.83 µM; for `O=C(NC(c1ccccc1)c1ccc2cccnc2c1O)c1ccccc1` (stereo not shown) [N-[(8-hydroxyquinolin-7-yl)(phenyl)methyl]benzamide], 4.7 µM and 5.47 µM.
